# According to patent US7115728B1, “Human peroxisome proliferator activated receptor γ” (Ligand Pharmaceutical Incorporated, priority 1995, dated 2006):
# Tests used:
# hPPARα = biological target: T1, hPPARα (Homo sapiens, UniProt Q07869); assay: Co-transfection assay, activation of hPPARα, FIG. 2; format: cell-based; details: CV-1 cells transfected with 0.1 μg pCMVhPPARα; gemfibrozil final concentration printed as 100 M
# T1 construct: expressed in transfected cells; host or cells: CV-1 cells
# T1 sequence (Q07869 1-468): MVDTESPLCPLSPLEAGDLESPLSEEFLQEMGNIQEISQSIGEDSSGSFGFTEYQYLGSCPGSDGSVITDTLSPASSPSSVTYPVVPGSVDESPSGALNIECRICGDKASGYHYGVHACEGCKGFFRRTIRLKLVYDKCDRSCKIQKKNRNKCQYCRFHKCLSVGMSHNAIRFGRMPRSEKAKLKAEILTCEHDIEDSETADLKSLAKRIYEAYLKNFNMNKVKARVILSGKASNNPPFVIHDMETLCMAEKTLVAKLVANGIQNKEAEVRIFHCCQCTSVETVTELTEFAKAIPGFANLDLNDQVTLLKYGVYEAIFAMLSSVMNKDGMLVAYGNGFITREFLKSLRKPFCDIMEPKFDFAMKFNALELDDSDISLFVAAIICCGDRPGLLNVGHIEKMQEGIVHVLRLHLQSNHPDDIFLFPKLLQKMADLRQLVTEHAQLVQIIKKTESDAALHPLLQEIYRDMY
# Method: CV-1 cells were transfected with 0.1 μg of pCMVhPPARα and 0.1 or 0.4 μg of pCMVhNUC1 or pCMVhPPARγ. Gemfibrozil was added to a final concentration of 100 µM.
# (§1) Biochem. Molec. Biol. 41, 733–738).
# Where indicated, 0–0.5 μg of hNUC1B plasmid or hPPARγ plasmid (repressor) was added. Repressor plasmid dosage was kept constant by the addition of appropriate amounts of the empty expression vector pBKCMV. Total amount of DNA was kept at 20 μg by the addition of pGEM DNA (Promega).
# (§2) Control cells were treated with vehicle.
# (§3) Each data point represents the mean of three transfections. Error bars represent the standard deviation from the mean.
# hPPARα is activated in the presence of gemfibrozil. When hNUC1 or hPPARγ is contransfected into cells along with hPPARα, a dose dependant repression was observed (FIG. 2). Repression of hPPARα with hNUC1 is stronger than with hPPARγ. No repression with 0.1 μg of hPPARγ was observed while repression with 0.1 μg of hNUC1 was clearly seen. However, repression with 0.4 μg of hPPARγ was observed.
# mPPARγ = details: Tontonoz et al. 1994; Kliewer et al.; cited from earlier work
# [1] = tested on: CV-1 cells transfected with the empty expression vector pBKCMV (no receptor); assay: Co-transfection assay, control CV-1 cells transfected with empty expression vector, FIG. 4; format: cell-based, monkey; details: CV-1 cells transfected with the empty expression vector (no receptor); 1 μM compound
# Method: (§4) CV-1 cells were transfected with pCMVhPPARγ3 or the empty expression vector pBKCMV (no receptor). Thiazolidinedione was added.
# as §1, §2, §3
# (§5) A cotransfection assay was performed in CV-1 cells with the pPREA3-tk-LUC and 1 μM thiazolidinedione (BRL 49,653, see Ibrahimi et al., Molecular Pharmacology 46:1070–1076, 1994). Thiazolidinedione is an insulin sensitizer and has potential use in the treatment of non-insulin dependant diabetes mellitus.
# hPPARγ [2] = biological target: T2, hPPARγ (Homo sapiens, UniProt P37231); assay: Co-transfection assay with pCMVhPPARγ3 and pPREA3-tk-LUC reporter in CV-1 cells, FIG. 4; format: cell-based; details: CV-1 cells transfected with pCMVhPPARγ3; pPREA3-tk-LUC; 1 μM compound; read-out: fold induction of reporter gene
# T2 construct: expressed in transfected cells; host or cells: CV-1 cells
# T2 sequence (P37231 31-505): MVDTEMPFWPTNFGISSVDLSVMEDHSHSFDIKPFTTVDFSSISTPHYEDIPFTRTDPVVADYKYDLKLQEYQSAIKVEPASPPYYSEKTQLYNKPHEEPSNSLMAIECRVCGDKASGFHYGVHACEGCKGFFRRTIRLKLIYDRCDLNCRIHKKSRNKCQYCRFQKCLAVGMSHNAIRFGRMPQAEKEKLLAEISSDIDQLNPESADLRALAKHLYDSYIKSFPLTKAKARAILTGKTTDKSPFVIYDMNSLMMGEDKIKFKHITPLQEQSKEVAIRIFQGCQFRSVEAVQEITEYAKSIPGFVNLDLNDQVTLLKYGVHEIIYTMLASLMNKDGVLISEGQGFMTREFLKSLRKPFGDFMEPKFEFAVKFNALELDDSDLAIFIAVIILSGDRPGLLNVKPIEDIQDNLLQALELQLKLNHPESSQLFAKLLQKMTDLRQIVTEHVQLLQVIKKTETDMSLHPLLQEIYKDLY
# Method: as §4, §1, §2, §3
# To increase the level of hPPARγ protein synthesis, Applicant deleted a region containing the two inframe upstream ATG codons since these are absent in mouse PPARγ. pCMVhPPARγ was digested with NcoI, blunt ended with Klenow, and digested again with KpnI. The insert was isolated and directionally cloned into pBKCMV plasmid, which was digested with XbaI (blunt ended with Klenow) and KpnI. In the ensuing plasmid pCMVhPPARγ3, the translation initiation codon is within the context of a stronger Kozak translation initiation sequence.
# as §5
# hPPARγ [3] = biological target: T3, hPPARγ (Homo sapiens, UniProt P37231); assay: Co-transfection assay, transactivation of hPPARγ (pCMVhPPARγ) in CV-1 cells, FIG. 1; details: CV-1 cells transfected with 0.1 μg pCMVhPPARγ; compared with empty vector pBKCMV (no receptor)
# T3 sequence (P37231 with tags, fused parts or gaps limits assumed): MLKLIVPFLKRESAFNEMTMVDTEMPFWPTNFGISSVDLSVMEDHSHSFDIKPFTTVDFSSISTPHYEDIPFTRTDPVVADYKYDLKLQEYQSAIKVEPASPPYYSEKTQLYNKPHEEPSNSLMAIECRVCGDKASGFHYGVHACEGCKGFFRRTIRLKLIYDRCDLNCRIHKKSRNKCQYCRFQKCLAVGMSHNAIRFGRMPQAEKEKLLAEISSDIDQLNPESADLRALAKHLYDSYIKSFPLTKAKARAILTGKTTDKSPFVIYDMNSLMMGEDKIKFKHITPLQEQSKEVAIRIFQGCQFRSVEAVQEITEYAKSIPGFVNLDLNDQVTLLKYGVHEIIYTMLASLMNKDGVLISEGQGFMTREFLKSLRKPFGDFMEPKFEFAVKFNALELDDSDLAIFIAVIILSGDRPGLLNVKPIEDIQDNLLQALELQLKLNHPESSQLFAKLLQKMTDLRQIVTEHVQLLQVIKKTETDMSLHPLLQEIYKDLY
# Method: CV-1 cells were transfected with 0.1 μg pCMVhPPARγ or the empty expression vector pBKCMV (no receptor).
# CV-1 or HepG2 cells were grown in Dulbecco's modified Eagle's medium (DMEM) supplemented with 10% (v/v) fetal bovine serum (Hyclone), 2 mM L-glutamine, and 55 μg/ml gentamicin (BioWhittaker). Cells were plated at 2×10^5 cells per well for HepG2 in 12 well cell culture dishes (Costar). The media was replaced with fresh media 20 hours later.
# After 14 hours the cells were washed with 1×PBS and fresh media added (DMEM with 10% charcoal stripped fetal bovine serum (Hyclone) plus the above supplements). Ligands or PPAR activators were added to the final concentrations indicated. Control cells were treated with vehicle.
# After another 24 hours the cells were harvested and the luciferase and β-galactosidase activities quantified on a Dynatech ML 1000 luminometer and a Beckman Biomek 1000 workstation respectively. The normalized response is the luciferase activity of the extract divided by the β-galactosidase activity of the same. Each data point represents the mean of three transfections. Error bars represent the standard deviation from the mean.
# Control cells received an equivalent amount of vehicle. In the repression assays repressor plasmid dosage was kept constant by adding the appropriate amount of the empty expression vector pBKCMV.
smiles,measurement,setting,value
Cc1ccc(C)c(OCCCC(C)(C)C(=O)O)c1 [gemfibrozil],activation of hPPARα,hPPARα,activated
"CCCCCC#CCC#CCC#CCC#CCCCC(=O)O [ETYA, 5,8,11,14-eicosatetraynoic acid]",transcriptional activation of mPPARγ,mPPARγ,transcriptionally activated
O=C1CSC(=O)N1 [Thiazolidinedione],fold activation of reporter gene,[1],7 fold
same,fold induction at 1 µM,hPPARγ [2],25
CC1=C(/C=C/C(C)=C\C=C\C(C)=C\C(=O)O)C(C)(C)CCC1 [9-cis retinoic acid],activation of hPPARγ (fold induction of reporter gene versus control cells),hPPARγ [3],same fold activation as in control transfections
"CCCc1c(OCCCCc2nnn[nH]2)ccc(C(C)=O)c1O [LY-171,883]",transcriptional activation of mPPARγ,mPPARγ,transcriptionally activated
